Like-named read-outs stand apart in the source and are kept apart here.

Test [1] concerns hypoxia response element-beta-lactamase (HRE–bla). Nature of the test: HRE-bla reporter gene assay in ME-180 cells. In kind it is cell-based, human. The note with it: Homo sapiens. For orientation: Reporter assays use an easily measured gene product as a stand-in for the process of interest.
Procedure: (§1) Cell culture of HRE–bla ME-180 cells (Cat. No. K1644, Life Technologies) and HRE–bla assay were conducted according to a reported protocol [6]. […] The fluorescence signals (460/25 nm and 530/20 nm) of CCF4 and luminescence signals of CellTiter-Glo were acquired on an Envision and a ViewLux plate readers (Perkin Elmer), respectively.
Test [2] relates to HRE–bla ME-180 cells. Nature of the test: Viability (BLA): CellTiter-Glo counter screen in HRE–bla cells. The note with it: for Viability (BLA) confirmatory IC50: Table S7, 1% O2, 18 h; for IC50: 1% O2, 18 h. Type of test: cell-based, human.
Procedure: as §1
For test [3], the system named is HCT116 cells. The experiment in a line: Cancer cell proliferation assay, HCT116. The note with it: Homo sapiens; for Emax: read-out: HCT116 3-Day Viability Efficacy. Type of test: cell-based, human.
Procedure: (§2) HCT116 and ME-180 cells (ATCC) were cultured according to manufacturer's instructions. […] Cell proliferation was quantified as relative luminescence unit (RLU) values using CellTiter-Glo viability assay reagent on a ViewLux plate reader (Perkin Elmer).
In test [4] the test system is ME-180 cells. The experiment in a line: Cancer cell proliferation assay, ME-180. Type of test: cell-based. The note with it: Homo sapiens; for Emax: read-out: ME-180 3-Day Viability Efficacy.
Procedure: as §2
The subject of test [5] is co-cultures of human aortic endothelial cells and human mesenchymal stem cells. The experiment in a line: In vitro angiogenesis co-culture assay (tube formation). Type of test: cell-based. The following applies: Homo sapiens, 72 h, Table 1, three-day exposure; for IC50: tube formation; for Emax: percentage of inhibition compared to DMSO controls, read-out: Angiogenesis Efficacy (converted).
Procedure: Cells were seeded in a 96-well clear bottom plate (Corning) for five hours and exposed to test compounds for three days at 37°C, 5% CO2.

The subject of test [6] is HIF-1α–NanoLuc. The experiment in a line: HIF-1α–NanoLuc reporter gene assay (qHTS primary and confirmatory screens). The note with it: Homo sapiens. Type of test: cell-based, human.
Test [7] concerns HIF-1α–NanoLuc HCT116 cells. The experiment in a line: Viability (Luc): CellTiter-Glo counter screen in HIF-1α–NanoLuc cells. Type of test: cell-based, human. The following applies: Table S7, 1% O2, 18 h.
Where [8] appears, read: ME-180, Table 1, percentage of inhibition compared to DMSO controls, read-out: HRE-bla Efficacy (converted).
[9] abbreviates: ME-180, Table S7, confirmatory screen, read-out: HRE–bla confirmatory Efficacy.
Setting [10] is: Table 1, ME-180 cells, 1% O2, 18 h, read-out: HRE-bla IC50.
Setting [11] is: HCT-116, Table 1, 72 h, read-out: 72-hr Viability HCT116 IC50.
Where [12] appears, read: ME-180, Table 1, 72 h, read-out: 72-hr Viability ME-180 IC50.
The mark [13] stands for this setting: ME-180, Table S7, confirmatory screen, read-out: HRE–bla confirmatory IC50.
The mark [14] stands for this setting: Homo sapiens, ME-180, Table S7, confirmatory screen.
The mark [15] stands for this setting: HCT-116, 72 h, Table S8, 3 days.
The mark [16] stands for this setting: Table S2, validation, read-out: Pathway inhibitors (validation) HIF-1α–NanoLuc Activity Efficacy.
Setting [17] is: Table S2, validation, read-out: Pathway inhibitors (validation) HIF-1α–NanoLuc Activity IC50.
The mark [18] stands for this setting: Table S7, confirmatory screen, read-out: HIF-1α–NanoLuc confirmatory Efficacy.
Where [19] appears, read: HCT-116, 72 h, Table S8, 3 days, read-out: HCT116 3-Day Viability IC50.
Setting [20] is: ME-180, 72 h, Table S8, 3 days, read-out: ME-180 3-Day Viability IC50.

As usually defined, the IC50 is the concentration that gives 50% inhibition. As for `Nc1ncn([C@@H]2O[C@H](CO)[C@@H](O)[C@H]2O)c(=O)n1` [5-Azacitidine], the Emax was 94% in test [1] (setting [8]), 94 ± 2% in test [1] (setting [9]) and 80% in test [5]. The IC50 was 11000 ± 750 nM in test [1] (setting [10]), 13.3 ± 1.52 µM in test [3] (setting [11]), 18600 nM in test [4] (setting [12]) and 4060 ± 1490 nM in test [5]. The “Viability (BLA) confirmatory IC50” value in test [2] is listed as “Inactive”.

Take `O=C(Nc1ccc([N+](=O)[O-])cc1Cl)c1cc(Cl)ccc1O` [Niclosamide]: the Emax is 91% in test [1] (setting [8]), 84 ± 6% in test [1] (setting [9]), 83 ± 6% in test [3] (setting [15]) and 87% in test [5]. The IC50 in test [1] (setting [13]) amounted to 1670 ± 460 nM; in test [1] (setting [10]), 230 ± 50 nM; in test [2] (setting [14]), 1.63 ± 2.58 µM; in test [4] (setting [12]), 2040 nM; in test [5], 40 ± 30 nM.

In the case of `CCCS(=O)(=O)Nc1ccc(F)c(C(=O)c2c[nH]c3ncc(-c4ccc(Cl)cc4)cc23)c1F` [Vemurafenib], the Emax came out at 66 ± 6% in test [6] (setting [16]); 66 ± 6% in test [6] (setting [18]); 75 ± 11% in test [1] (setting [9]); 27 ± 10% in test [2] (Homo sapiens, ME-180, Table S7, confirmatory screen, read-out: Viability (BLA) confirmatory Efficacy); 63 ± 4% in test [3] (setting [15]); 92 ± 5% in test [4] (ME-180, 72 h, Table S8, 3 days). The IC50 stood at 13600 ± 6380 nM in test [6] (setting [17]); 4100 ± 700 nM in test [1] (setting [13]); 16 ± 8.13 µM in test [2] (setting [14]); 31.8 ± 9.41 µM in test [3] (setting [19]); 14400 ± 1970 nM in test [4] (setting [20]). Besides, in test [7], the “Viability (Luc) confirmatory IC50” value is reported as “Inactive”.

For the compound `O=C(NOCC1CC1)c1ccc(F)c(F)c1Nc1ccc(I)cc1Cl` [PD 184352], the Emax was 64% in test [6] (Table S2, primary screen, read-out: Pathway inhibitors (primary screen) HIF-1α–NanoLuc Activity Efficacy); 99 ± 2% in test [6] (setting [16]); 99 ± 2% in test [6] (setting [18]); 64% in test [6] (Table S7, primary screen, read-out: HIF-1α–NanoLuc primary Efficacy); 74 ± 5% in test [1] (setting [9]); 97 ± 4% in test [3] (setting [15]). In addition, the Emax in test [4] (ME-180, 72 h, Table S8, 3 days) came to 100 ± 7%. Moreover, the IC50 was found to be 840 nM in test [6] (Table S2, primary screen, read-out: Pathway inhibitors (primary screen) HIF-1α–NanoLuc Activity IC50); 13700 ± 930 nM in test [6] (setting [17]); 5980 ± 690 nM in test [1] (setting [13]); 5.93 ± 4.08 µM in test [2] (setting [14]); 13.2 µM in test [3] (setting [19]); 18000 ± 1170 nM in test [4] (setting [20]). For the same compound, the “Viability (Luc) confirmatory IC50” value in test [7] is recorded as “Inactive”.

Turning to `C[C@H]1O[C@@H](O[C@H]2CC[C@@]3(C)[C@H](CC[C@@H]4[C@@H]3C[C@@H](O)[C@]3(C)[C@@H](C5=CC(=O)OC5)CC[C@]43O)C2)C[C@H](O)[C@@H]1O[C@H]1C[C@H](O)[C@H](O[C@H]2C[C@H](O)[C@H](O[C@@H]3O[C@H](CO)[C@@H](O)[C@H](O)[C@H]3O)[C@@H](C)O2)[C@@H](C)O1` [Deslanoside], the IC50 stood at 300 nM in test [6] (18 h, read-out: IC50 (primary screen, HIF-1α–NanoLuc assay)); 390 ± 30 nM in test [6] (read-out: HIF-1α–NanoLuc confirmatory IC50); 160 ± 30 nM in test [1] (setting [13]); 0.32 ± 0.09 µM in test [2] (setting [14]); 2.59 ± 2.87 µM in test [3] (setting [19]); 310 ± 40 nM in test [4] (setting [20]). Besides, the Emax in test [6] (read-out: Efficacy (primary screen, HIF-1α–NanoLuc assay)) was found to be 115%; in test [6] (read-out: HIF-1α–NanoLuc confirmatory Efficacy), 108 ± 9%; in test [6] (read-out: HIF-1α–NanoLuc primary Efficacy), 115%; in test [1] (setting [9]), 102 ± 3%; in test [3] (setting [15]), 63 ± 8%; in test [4] (ME-180, 72 h, Table S8, 3 days), 97 ± 3%. Besides, the “Viability (Luc) confirmatory IC50” value in test [7] is on record as “Inactive”.

In the case of `CC[C@@]1(O)C(=O)OCc2c1cc1n(c2=O)Cc2cc3c(CN(C)C)c(O)ccc3nc2-1` [Topotecan], the results for the Emax in test [1] (setting [8]), in test [1] (setting [9]) and in test [5] were 131%, 131 ± 9% and 80%, respectively. The IC50 in test [1] (setting [10]) was 620 ± 380 nM; in test [3] (setting [11]), 4.3 ± 1.2 µM; in test [4] (setting [12]) it was 100 ± 10 nM; in test [5] it was 10 nM. Besides, in test [2], the “Viability (BLA) confirmatory IC50” value is listed as “Inactive”.

With `CC[C@@]1(O)C(=O)OCc2c1cc1n(c2=O)Cc2cc3ccccc3nc2-1` [Camptothecin], the values for the Emax in test [1] (setting [8]), in test [1] (setting [9]) and in test [5] were 84%, 84 ± 1% and 134%, respectively. In addition, the IC50 in test [1] (setting [10]) stood at 200 ± 60 nM; in test [3] (setting [11]) it was 1 ± 0.29 µM; in test [4] (setting [12]), 40 nM; in test [5], 0.27 ± 0.31 nM. Further, the “Viability (BLA) confirmatory IC50” value in test [2] is “Inactive”.

Source of the values: article PMC4884984, “Identification of approved and investigational drugs that inhibit hypoxia-inducible factor-1 signaling” (Oncotarget, 2016).
